Our source for the IC90 values is patent US20230203043A1, “NOVEL IMIDAZOPYRAZINE DERIVATIVES” (Hoffmann-La Roche Inc., priority 2020, published 2023).

SMILES strings stand for the structures. Structures can show the parent of a compound that is named as a salt.

The first experiment deals with Acinetobacter baumannii ATCC17961. Briefly: Antimicrobial susceptibility testing: 90% growth inhibitory concentration (IC90) determination in Iso-Sensitest broth, OD600 growth. Type of experiment: cell-based. As to conditions: Acinetobacter baumannii, ATCC17961, 16 h, read-out: A. baumannii ATCC 17961 IC90 (uM), strain ATCC 17961, OD600 growth over 16 h. In a few lines:
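Compounds were twofold serially diluted in DMSO across 10 points (e.g. 50 to 0.097 μM final) and inoculated at ~5×10^(5) CFU/ml. Plates incubated at 35±2° C, with OD600 read every 20 minutes over 16 h. IC90 was derived from growth inhibition during logarithmic growth.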
Regarding `C[C@@H](NC(=O)c1ccc(Nc2nccn3c(-c4c[nH]nc4C(F)(F)F)cnc23)cc1Cl)C(=O)NC1CC(N)C1` (stereo partly drawn) [Example 92, N-[(2R)-1-[(3-aminocyclobutyl)amino]-1-oxopropan-2-yl]-2-chloro-4-[[3-[3-(trifluoromethyl)-1H-pyrazol-4-yl]imidazo[1,2-a]pyrazin-8-yl]amino]benzamide formate], the IC90 – broadly, the point of the concentration-response curve where the effect stands at 90% – is 0.947 µM.

The experiment is the same for the next values; noted with them: Acinetobacter baumannii, ATCC17961, 16 h, strain ATCC 17961, OD600 growth over 16 h, read-out: A. baumannii ATCC 17961 IC90.
Consider `O=C(NC1CCCN(C(=O)[C@H]2C[C@H](O)CN2)C1)c1ccc(Nc2nccn3c(-c4c[nH]nc4C(F)(F)F)cnc23)cc1Cl` (mixture of isomers) [Example 387, 2-chloro-N-[1-[rac-(2R,4S)-4-hydroxypyrrolidine-2-carbonyl]piperidine-3-yl]-4-[[3-[3-(trifluoromethyl)-1H-pyrazol-4-yl]imidazo[1,2-a]pyrazin-8-yl]amino]benzamide], for which the IC90 was 4.84 µM. As to `NC(=O)c1ccc(Nc2nccn3c(-c4c[nH]nc4C(F)(F)F)cnc23)cc1Cl` [Example 404, 2-chloro-4-[[3-[3-(trifluoromethyl)-1H-pyrazol-4-yl]imidazo[1,2-a]pyrazin-8-yl]amino]benzamide], the IC90 is 1.23 µM. Still for that read-out and setting: the result for `Cc1cc(Nc2nccn3c(-c4cn(CC#N)nc4C(F)(F)F)cnc23)cc(F)c1C(=O)N1CCN(C(=O)[C@H]2[C@@H]3CNC[C@@H]32)CC1` [Example 676, 2-(4-(8-((4-(4-((1R,5S,6r)-3-azabicyclo[3.1.0]hexane-6-carbonyl)piperazine-1-carbonyl)-3-fluoro-5-methylphenyl)amino)imidazo[1,2-a]pyrazin-3-yl)-3-(trifluoromethyl)-1H-pyrazol-1-yl) acetonitrile formate] reads 0.316 µM; that for `N[C@@H]1CC[C@H](C(=O)N2CCN(C(=O)c3ccc(Nc4nccn5c(-c6cn(CC7CC7)nc6C(F)(F)F)cnc45)cc3F)CC2)C1` [Example 808, (4-((1S,3R)-3-aminocyclo-pentane-1-carbonyl)piperazin-1-yl)(4-((3-(1-(cyclopropyl-methyl)-3-(trifluoromethyl)-1H-pyrazol-4-yl)imidazo[1,2-a]pyrazin-8-yl)amino)-2-fluorophenyl) methanone hydrochloride], 0.26 µM; that for `N#CCn1cc(-c2cnc3c(Nc4ccc(C(=O)N5CCC(NC(=O)[C@@H]6C[C@@H](O)CN6)CC5)c(Cl)c4)nccn23)c(C(F)(F)F)n1` [Example 143, (2S,4R)-N-[1-[2-chloro-4-[[3-[1-(cyanomethyl)-3-(trifluoromethyl)pyrazol-4-yl]imidazo[1,2-a]pyrazin-8-yl]amino]benzoyl]piperidin-4-yl]-4-hydroxypyrrolidine-2-carboxamide], 0.555 µM. On to `CCc1cc(Nc2nccn3c(-c4cn(CCF)nc4C(F)(F)F)cnc23)ccc1C(=O)N[C@H](C)CN` [Example 110, N-[(2R)-1-aminopropan-2-yl]-2-ethyl-4-[[3-[1-(2-fluoroethyl)-3-(trifluoromethyl)pyrazol-4-yl]imidazo[1,2-a]pyrazin-8-yl]amino]benzamide], for which the IC90 came to 0.506 µM. Take `C#CCn1cc(-c2cnc3c(Nc4ccc(C(=O)NCCOCC(C)(C)N)c(CC)c4)nccn23)c(C(F)(F)F)n1` [Example 44, N-[2-(2-amino-2-methylpropoxy)ethyl]-2-ethyl-4-[[3-[1-prop-2-ynyl-3-(trifluoromethyl)pyrazol-4-yl]imidazo[1,2-a]pyrazin-8-yl]amino]benzamide]: the IC90 is 0.059 µM.

Take `CCc1cc(Nc2nccn3c(-c4cn(CC#N)nc4C(F)(F)F)cnc23)ccc1C(=O)NCC(=O)NCC1CCNC1` (stereo not drawn) [Example 523, 4-[[3-[1-(cyanomethyl)-3-(trifluoromethyl)pyrazol-4-yl]imidazo[1,2-a]pyrazin-8-yl]amino]-2-ethyl-N-[2-oxo-2-(pyrrolidin-3-ylmethylamino)ethyl] benzamide formate]: the IC90 was 0.313 µM.
